In US8901304B1, “Benzo[D]imidazole derivatives of piperidine and piperazine” (King Fahd University of Petroleum and Minerals, priority 2013, dated 2014):

| SMILES | melting point [°C] |
| --- | --- |
| O=c1[nH]c2ccc(C3CCN(Cc4cncc(-c5ccccc5)c4)CC3)cc2[nH]1 [5c, 5-(1-((5-phenylpyridin-3-yl)methyl)piperidin-4-yl)-1H-benzo[d]imidazol-2(3H)-one] | 236 to 237 |
| O=c1[nH]c2ccc(C3CCN(Cc4ccc(-c5ccccc5)cc4)CC3)cc2[nH]1 [5a, 5-(1-(biphenyl-4-ylmethyl)piperidin-4-yl)-1H-benzo[d]imidazol-2(3H)-one] | > 260 |
| O=c1[nH]c2ccc(C3CCN(Cc4cncc(C5=CCCC5)c4)CC3)cc2[nH]1 [5f, 5-(1-((5-cyclopentenylpyridin-3-yl)methyl)piperidin-4-yl)-1H-benzo[d]imidazol-2(3H)-one] | 249 to 250 |

Now from value to compound:

| melting point [°C] | SMILES |
| --- | --- |
| > 260 | O=c1[nH]c2ccc(N3CCN(CC4(F)C=CC(c5ccccc5)=CC4)CC3)cc2[nH]1 (centres unmarked) [6b, 5-(4-((4-Fluorobiphenyl-4-yl)methyl)piperazin-1-yl)-1H-benzo[d]imidazol-2(3H)-one] |
| 244 to 245 | O=c1[nH]c2ccc(N3CCN(Cc4cccc(C5=CCCC5)c4)CC3)cc2[nH]1 [6e, 5-(4-(3-cyclopentenylbenzyl)piperazin-1-yl)-1H-benzo[d]imidazol-2(3H)-one] |
| > 260 | O=c1[nH]c2ccc(N3CCN(Cc4ccc(-c5ccccc5)cc4)CC3)cc2[nH]1 [6a, 5-(4-(biphenyl-4-ylmethyl)piperazin-1-yl)-1H-benzo[d]imidazol-2(3H)-one] |
| 255 to 256 | O=c1[nH]c2ccc(N3CCN(Cc4cncc(C5=CCCC5)c4)CC3)cc2[nH]1 [6f, 5-(4-((5-cyclopentenylpyridin-3-yl)methyl)piperazin-1-yl)-1H-benzo[d]imidazol-2(3H)-one] |
| 246 to 247 | O=c1[nH]c2ccc(N3CCN(Cc4cncc(-c5ccc(F)cc5)c4)CC3)cc2[nH]1 [6d, 5-(4-((5-(4-fluorophenyl)pyridin-3-yl)methyl)piperazin-1-yl)-1H-benzo[d]imidazol-2(3H)-one] |
